Experimental data taken from patent US20080253967A1, “Halo-Stilbene Derivatives And Their Use For Binding And Imaging Of Amyloid Plaques” (priority 2007, published 2008).
Values joined by “and” are separate entries in the source; they are usually repeats but may differ in a detail not shown here. Equal entries are not always repeated. “Also recorded” adds a separate entry of the source. Where two headings read alike, the source gives them in different places. Each block holds one compound with its values, some of them ahead of it.

What was measured:
fibrillar Aβ aggregates = fibrillar Aβ aggregates (Homo sapiens, UniProt P05067); details: read-out: Inhibition constants (Ki) for binding to fibrillar Aβ aggregates; cited from earlier work
Sequence of fibrillar Aβ aggregates (P05067 672-711 limits assumed): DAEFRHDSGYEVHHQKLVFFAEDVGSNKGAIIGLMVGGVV

[1] = test system: 46 CNS and Cardiovascular receptor binding sites; experiment: Binding at CNS and Cardiovascular Receptors (panel of 46 sites); details: 1 μM; inhibition >50% considered significant
Procedure: A panel of 46 CNS and Cardiovascular receptor binding sites, including adenosine, adrenergic, benzodiazepine, bombesin, dopamine, GABA, melatonin, muscarinic, neurotensin, nicotininc acetylcholine, opiate, potassium channel, serotonin, sigma, and several transporter subtypes, was tested for binding of Compound 15. […] Inhibition of binding in excess of 50% by Compound 15 was considered potentially significant.

amyloid plaques [2] = target: T1, amyloid plaques (Homo sapiens, UniProt P05067); experiment: Inhibition of ^125I-IMPY binding in AD brain homogenates; details: read-out: Binding Affinity (Ki vs. ^125I-IMPY)
T1 sequence (P05067 672-711 limits assumed): as above
Procedure: Thus, inhibition of ^125I-IMPY binding in human AD brain homogenates was taken as an assay for the potential of test compounds to bind to amyloid plaques.
Postmortem brain tissue was obtained and neuropathological diagnosis was confirmed in accordance with the NIA-Reagan Institute Consensus Group criteria. Homogenates were then prepared from dissected gray matter, pooled in phosphate buffered saline and aliquoted into 1-ml portions (100 mg wet tissue/ml), which could be stored at −70° C. for 3-6 months without loss of binding signal.
(§1) For the binding assays brain homogenates were incubated with ^125I-IMPY (0.04-0.06 nM diluted in phosphate buffered saline (PBS)) and test compound (10^−5-10^−10 M diluted in PBS containing 0.1% bovine serum albumin (BSA)). […] The bound and free radioactivity was separated by vacuum filtration followed by 2×3 ml washes of PBS. Filters containing the bound ^125I ligand were assayed in a gamma counter.
as §1, with “in PBS)” for “in phosphate buffered saline (PBS))”, “0.1% BSA).” for “0.1% bovine serum albumin (BSA)).”, “bound […],” for “bound ^125I”

[3] = Organ distribution in normal mice after i.v. injection; format: in vivo; details: for Biodistribution Brain (% dose/g in brain) / % total counted / % total recovered / Biodistribution Brain: normal male mice; for Brain penetration and clearance: normal mice
Procedure: While under isoflurane anesthesia, 0.15 ml of a 0.9% saline solution containing ^123I-15 (5-10 μCi) was injected directly into the tail vein of ICR mice (22-25 g, male). The mice (n=3 for each time point) were sacrificed, the organs of interest were removed, weighed, and assayed with an automatic gamma counter. The percentage dose per organ was calculated by a comparison of the tissue counts to suitably diluted aliquots of the injected material. Total activities of blood were calculated under the assumption that they were 7% of the total body weight. The % dose/g of samples was calculated by comparing the sample counts with the count of the diluted initial dose. […] Similar results were obtained in female mice.
While under isoflurane anesthesia, 0.15 ml of a 0.9% saline solution containing ^123I-1b-3 (5-10 μCi) was injected directly into the tail vein of ICR mice (22-25 g, male and female) The mice (n=3 for each time point per sex) were sacrificed, the organs of interest were removed, weighed, and assayed with an automatic gamma counter. The percentage dose per organ was calculated by a comparison of the tissue counts to suitably diluted aliquots of the injected material. Total activities of blood were calculated under the assumption that they were 7% of the total body weight. The % dose/g of samples was calculated by comparing the sample counts with the count of the diluted initial dose.

amyloid plaques [4] = target: T1, amyloid plaques; details: AD brain homogenates; other amyloid plaque ligands; read-out: Binding Affinity (Ki vs. ^125I-IMPY), published values; cited from earlier work
AD cortical homogenates = details: cited from earlier work
[5] = Partition coefficient 1-octanol/buffer; details: 1-octanol / 0.1 M phosphate buffer pH 7.4
Procedure: (§3) Partition coefficients were measured by mixing ^123I-15 with 3 g each of 1-octanol and buffer (0.1 M phosphate, pH 7.4) in a test tube. The test tube was vortexed for 3 min at room temperature, followed by centrifugation for 5 min. Two weighed samples (0.5 g each) from the 1-octanol and the buffer layer were counted in a well counter. The partition coefficient was determined by calculating the ratio of cpm/g of 1-octanol to that of the buffer. Samples from the 1-octanol layer were repartitioned until consistent partitions of coefficient values were obtained from the third partition. The measurement was done in triplicate and repeated three times.
(§4) The test tube was vortexed for 3 min at room temperature, followed by centrifugation for 5 min. Two weighed samples (0.5 g each) from the 1-octanol and the buffer layer were counted in a well counter. The partition coefficient was determined by calculating the ratio of cpm/g of 1-octanol to that of the buffer. Samples from the 1-octanol layer were repartitioned until consistent partitions of coefficient values were obtained from the third partition. The measurement was done in triplicate and repeated three times.

Aβ plaques = experiment: Film autoradiography of AD brain sections; format: binding, human; details: tracer concentrations, post-mortem AD brain sections
Procedure: (§2) Brain sections from a patient with AD were frozen in powdered dry ice and cut into 20 μm thick sections. The sections were incubated with ^123I-15 (200,000-250,000 cpm/200 μl) for 1 hour at room temperature. The sections were then dipped in saturated Li2CO3 in 40% EtOH (2×2 min. washes) and washed with 40% EtOH (1×2 min. wash) followed by rinsing with water for 30s. After drying, the ^123I-labeled sections were exposed to Kodak MR film overnight.
as §2, with “Brains” for “Brain”, “patients” for “a patient”, “^123I-1b-3” for “^123I-15”, “30 s.” for “30s.”

[6] = Estimate of human dosimetry extrapolated from mouse data; details: proposed 5 mCi human dose, extrapolation from mouse data
physchem = details: pH 7.4
Procedure: as §3, §4

SMILES: O=C(O)c1cc(/N=N/c2ccc(-c3ccc(/N=N/c4ccc(O)c(C(=O)O)c4)cc3)cc2)ccc1O [CG, chrysamine-G]
- Ki (fibrillar Aβ aggregates): 370 nM

- Ki (amyloid plaques [2]): 9 ± 1.8 nM
- Biodistribution Brain (% dose/g in brain) ([3]; 2 min): 2.0 ± 0.4 % dose/g
- Biodistribution Brain (% dose/g in brain) ([3]; 60 min): 0.51 ± 0.09 % dose/g
SMILES: CNc1ccc(/C=C/c2ccc(OCCOCCOCCF)c(I)c2)cc1 [Compound 1b-3, (E)-4-(4-(2-(2-(2-fluoroethoxy)ethoxy)ethoxy)-3-iodostyryl)-N-methylbenzenamine]
- Selectivity (binding to CNS/CV receptors) [1]: No high affinity binding to any CNS receptors

- Ki (amyloid plaques [2]): 6.7 ± 0.3 nM
- Biodistribution Brain (% dose/g in brain) ([3]; 2 min): 4.8 ± 0.2 % dose/g
- Biodistribution Brain (% dose/g in brain) ([3]; 60 min): 1.5 ± 0.2 % dose/g
SMILES: CNc1ccc(/C=C/c2ccc(OCCOCCOCCF)cc2)cc1 [Compound 3, (E)-4-(2-(6-(2-(2-(2-fluoroethoxy)ethoxy)ethoxy)phenyl)-vinyl)-N-methylbenzamine, reference compound]
- Selectivity (binding to CNS/CV receptors) [1]: No high affinity binding to any CNS receptors

SMILES: CC(=C(C#N)C#N)c1ccc2cc(N(C)CC[18F])ccc2c1 [FDDNP, 2-(1-{6-[(2-[^18F]fluoroethyl)(methyl)amino]-2-naphthyl}ethylidene)malononitrile]
- Ki (amyloid plaques [4]): 239 nM

SMILES: CNc1ccc(/C=C/c2ccc(O)cc2)cc1 [[^3H]SB-13]
- Kd (AD cortical homogenates): 2.4 ± 0.2 nM

SMILES: CNc1ccc(/C=C/c2ccc(OCCOCCOCCF)c([123I])c2)cc1 [^123I-1b-3]
- Partition coefficient [5]: 432
- logP [5]: 2.63
- Labeling of Aβ plaques in AD brain sections (Aβ plaques): specifically labeled Aβ plaques; also recorded: colocalize with plaque staining by Congo Red
- % total counted / % total recovered ([3]; 2 min): 82.20 ± 6.38%
- Biodistribution Brain ([3]; 2 min): 1.01 ± 0.16 % dose/organ
- Biodistribution Brain (% dose/g in brain) ([3]; 2 min): 2.0 % dose/g and 2.05 ± 0.41 % dose/g
- % total counted / % total recovered ([3]; 60 min): 83.26 ± 6.99%
- Biodistribution Brain ([3]; 60 min): 0.26 ± 0.05 % dose/organ
- Biodistribution Brain (% dose/g in brain) ([3]; 60 min): 0.51 % dose/g and 0.51 ± 0.09 % dose/g
- % total counted / % total recovered ([3]; 120 min): 83.56 ± 6.29%
- % total counted / % total recovered ([3]; 180 min): 79.15 ± 6.31%
- Brain penetration and clearance [3]: readily penetrates and is rapidly cleared from the brain
- Estimated exposure of lower large intestine [6]: approximately 4.04 rem
- Estimated exposure of upper large intestine [6]: ~3.55 rem
- Estimated human effective dose (ED) [6]: 1.1 rem

- logD (physchem): 2.4
- logP (physchem): 2.39
- Estimated human effective dose (ED): approximately 1.1 rem
- % total counted / % total recovered ([3]; 2 min): 86.65 ± 1.34%
- Biodistribution Brain ([3]; 2 min): 1.49 ± 0.12 % dose/organ
- Biodistribution Brain (% dose/g in brain) ([3]; 2 min): 3.4 % dose/g and 3.40 ± 0.31 % dose/g
- % total counted / % total recovered ([3]; 60 min): 87.53 ± 4.57%
- Biodistribution Brain ([3]; 60 min): 0.21 ± 0.01 % dose/organ
- Biodistribution Brain (% dose/g in brain) ([3]; 60 min): 0.43 % dose/g and 0.43 ± 0.05 % dose/g
- % total counted / % total recovered ([3]; 120 min): 79.41 ± 5.56%
- % total counted / % total recovered ([3]; 180 min): 79.46 ± 5.15%
SMILES: CNc1ccc(/C=C/c2cc([123I])cc(OCCO)c2)cc1 [^123I-15]
- Labeling of Aβ plaques in AD brain sections (Aβ plaques): specifically labeled Aβ plaques
- Brain penetration and clearance [3]: readily penetrates and is rapidly cleared from the brain
